Our source for the inhibition values is patent US9416115B2, “Fused heterocyclic compounds as ion channel modulators” (Gilead Sciences, Inc., priority 2013, dated 2016).

One test has as its target hNav1.1 (SCN1A) (Homo sapiens, UniProt P35498). Put plainly: Use-dependent inhibition of the CNS Nav1.1 sodium channel. In kind it is cell-based. The conditions noted are these: use-dependent block, 25 Hz, pulse 20, read-out: Nav1.1 UDB 25 Hz 10 uM. In outline: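 HEK-293 cells stably expressing WT hNav1.1, automated whole-cell patch clamp at 23-25 °C with CsF-based internal and NaCl external solutions, pH 7.35. Compound applied twice, 200 s equilibration; block measured at pulse 20 of a 25 Hz train (0 mV, 20 ms) from −120 mV, as mean % inhibition versus compound-free.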

The next test concerns the target T1, hNaV1.2 (SCN2A) (Homo sapiens, UniProt Q99250).
T1 construct: expressed in transfected cells
Kind of test: Use-dependent inhibition of the CNS Nav1.2 sodium channel. It is filed as cell-based. The conditions noted are these: use-dependent block, 25 Hz, pulse 20, read-out: Nav1.2 UDB 25 Hz 10 uM. Here is the method:
HEK-293 cells stably expressing wild-type (WT) hNaV1.2 (SCN2A NCBI # NM_021007.2, SCN1B NCBI # NM_001037.4, SCN2B NCBI # NM_004588.2) were used to record INa. Cells are maintained with standard tissue culture procedures and stable channel expression is maintained with 800 ug/mL G418 and 3 ug/mL Puromycin in the culture medium. Unless otherwise noted, all reagents are purchased from Sigma-Aldrich (St Louis, Mo., U.S.A.).
Assays measuring Use-Dependent Block (UDB) of Nav1.2 are performed on an automated electrophysiology platform, QPatch 16X or QPatch HT (Sophion Bioscience, Copenhagen, Denmark), using the whole cell patch clamp technique to measure currents through the cell membrane. Series resistance compensation is set to 100% and series resistance and whole-cell compensation are performed automatically. Currents stored in the Sophion Bioscience Oracle database (Sophion Bioscience, Copenhagen, Denmark). Analysis is performed using QPatch Assay software and data are compiled in Excel 2010 (Microsoft, Seattle, Wash., U.S.A.).
The internal (pipette) solution consists of (in mM) 105 CsF, 10 NaF, 20 CsCl, 2 EGTA, 10 HEPES, 10 Dextrose with a pH of 7.35 and osmolarity of 300 mOsmol/kg. The external (bath) solution contains in (mM): 145 NaCl, 4 KCl, 1.8 CaCl2, 1 MgCl2, 10 dextrose, 10 HEPES, with a pH of 7.35 and osmolarity of 310 mOsmol/kg. Experiments are carried out at 23-25° C.
Compound stocks are routinely made by the Gilead Sample Bank in vials to 10 mM in dimethyl sulfoxide (DMSO). In some cases, when compounds are not soluble in DMSO, they are made in 100% ethanol. Stocks are sonicated as necessary. […]
Cells are allowed to stabilize for 10 min after establishment of the whole-cell configuration before current is measured. The test compound is applied 2 times at 60 second intervals. After the second compound addition, a 200 second wait period was imposed to allow for equilibration. Leak currents are subtracted by using an online P/4 procedure and all currents are low-pass Bessel filtered at 5 kHz and digitized at […].
Results are presented as mean percentage inhibition.
Use-dependent block of Nav1.2 peak current is measured during pulse number 20 of a voltage pulse train (0 mV, 20 ms, 20 pulses, 25 Hz) from a holding potential of −120 mV.
Currents are normalized to the peak current recorded in response to the first pulse in each frequency train. The voltage protocol for UDB was performed in the absence and presence of compound and percentage inhibition was calculated with respect to the compound free condition.

T1 sequence (Q99250 whole entry): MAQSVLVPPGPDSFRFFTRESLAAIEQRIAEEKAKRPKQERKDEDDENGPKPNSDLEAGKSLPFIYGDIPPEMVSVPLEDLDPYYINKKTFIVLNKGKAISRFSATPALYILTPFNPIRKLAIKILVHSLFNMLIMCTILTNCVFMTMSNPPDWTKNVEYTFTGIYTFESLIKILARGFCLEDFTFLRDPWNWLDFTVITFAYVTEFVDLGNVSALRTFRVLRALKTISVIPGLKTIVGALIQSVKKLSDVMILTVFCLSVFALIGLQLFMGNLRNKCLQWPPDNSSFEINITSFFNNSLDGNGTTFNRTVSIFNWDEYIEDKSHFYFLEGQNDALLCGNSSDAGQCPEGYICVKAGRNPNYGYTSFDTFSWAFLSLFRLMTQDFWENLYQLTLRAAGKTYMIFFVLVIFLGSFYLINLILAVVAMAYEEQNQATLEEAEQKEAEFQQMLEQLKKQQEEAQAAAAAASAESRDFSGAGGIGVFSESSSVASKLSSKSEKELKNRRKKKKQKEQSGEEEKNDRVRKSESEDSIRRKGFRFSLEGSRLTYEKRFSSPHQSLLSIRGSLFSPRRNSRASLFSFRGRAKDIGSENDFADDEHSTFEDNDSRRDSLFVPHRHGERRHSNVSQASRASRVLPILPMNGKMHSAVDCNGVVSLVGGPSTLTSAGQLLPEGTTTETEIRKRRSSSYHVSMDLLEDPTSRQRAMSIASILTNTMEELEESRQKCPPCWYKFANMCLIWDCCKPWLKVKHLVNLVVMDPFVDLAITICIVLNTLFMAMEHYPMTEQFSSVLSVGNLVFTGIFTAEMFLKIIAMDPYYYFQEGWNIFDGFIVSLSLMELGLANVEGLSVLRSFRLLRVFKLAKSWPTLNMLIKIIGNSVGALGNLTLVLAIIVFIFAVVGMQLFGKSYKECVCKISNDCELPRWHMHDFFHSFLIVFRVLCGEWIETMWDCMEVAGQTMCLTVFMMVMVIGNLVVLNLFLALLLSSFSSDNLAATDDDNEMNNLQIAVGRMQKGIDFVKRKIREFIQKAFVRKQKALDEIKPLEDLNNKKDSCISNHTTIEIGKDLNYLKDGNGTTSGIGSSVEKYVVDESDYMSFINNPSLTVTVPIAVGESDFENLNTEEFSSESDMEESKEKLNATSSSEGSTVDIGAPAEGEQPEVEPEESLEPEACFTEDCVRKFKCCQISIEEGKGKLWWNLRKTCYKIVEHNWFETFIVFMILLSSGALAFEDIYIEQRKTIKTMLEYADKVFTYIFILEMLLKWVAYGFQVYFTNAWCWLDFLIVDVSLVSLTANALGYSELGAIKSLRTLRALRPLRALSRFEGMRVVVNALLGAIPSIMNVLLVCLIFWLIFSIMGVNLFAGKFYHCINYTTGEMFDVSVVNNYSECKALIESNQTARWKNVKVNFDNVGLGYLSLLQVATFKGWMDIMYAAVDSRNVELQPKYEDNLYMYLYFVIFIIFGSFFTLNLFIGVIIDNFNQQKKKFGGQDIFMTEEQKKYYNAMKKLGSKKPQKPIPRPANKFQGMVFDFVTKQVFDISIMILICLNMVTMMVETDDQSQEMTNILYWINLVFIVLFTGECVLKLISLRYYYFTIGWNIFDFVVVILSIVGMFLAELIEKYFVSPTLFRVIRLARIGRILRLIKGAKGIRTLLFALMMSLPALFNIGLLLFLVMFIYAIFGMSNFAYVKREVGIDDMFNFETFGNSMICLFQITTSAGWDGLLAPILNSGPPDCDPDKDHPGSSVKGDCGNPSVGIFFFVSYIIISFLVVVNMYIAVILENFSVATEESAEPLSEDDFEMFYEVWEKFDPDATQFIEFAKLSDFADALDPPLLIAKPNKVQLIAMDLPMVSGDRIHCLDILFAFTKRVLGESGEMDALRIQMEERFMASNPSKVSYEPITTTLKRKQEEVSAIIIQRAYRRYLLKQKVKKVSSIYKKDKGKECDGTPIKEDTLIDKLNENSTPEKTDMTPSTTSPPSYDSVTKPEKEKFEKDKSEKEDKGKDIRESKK
T1 sequence (Q07699 19-218 partner): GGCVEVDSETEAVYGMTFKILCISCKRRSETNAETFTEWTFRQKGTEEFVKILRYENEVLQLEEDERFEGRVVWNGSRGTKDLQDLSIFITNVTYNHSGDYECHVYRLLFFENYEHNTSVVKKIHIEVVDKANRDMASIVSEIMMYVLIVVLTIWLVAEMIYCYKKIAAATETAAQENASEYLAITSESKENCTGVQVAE
T1 sequence (O60939 30-215 partner): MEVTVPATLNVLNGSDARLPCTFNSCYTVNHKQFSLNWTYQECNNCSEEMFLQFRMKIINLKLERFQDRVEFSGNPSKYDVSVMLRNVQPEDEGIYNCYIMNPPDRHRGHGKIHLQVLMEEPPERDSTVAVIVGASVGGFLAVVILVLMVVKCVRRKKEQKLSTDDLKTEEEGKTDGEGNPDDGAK

For the compound `FC(F)(F)Oc1ccc(-c2ccc3onc(OC[C@@H]4COCCN4)c3c2)cc1` [Example 113, (S)-3-(morpholin-3-ylmethoxy)-5-(4-(trifluoromethoxy)phenyl)benzo[d]isoxazole], the inhibition at 10 µM amounted to 88.4% at hNav1.1 (SCN1A) and 91.2% on hNaV1.2 (SCN2A).

As for `FC(F)(F)Oc1ccc(-c2ccc3onc(OCc4ncco4)c3c2)cc1` [Example 53, 3-(oxazol-2-ylmethoxy)-5-(4-(trifluoromethoxy)phenyl)benzo[d]isoxazole], the inhibition at 10 µM on hNav1.1 (SCN1A) and at hNaV1.2 (SCN2A) was less than 5% throughout.

For `FC(F)(F)Oc1ccc(-c2ccc3onc(N4CCOCC4)c3c2)cc1` [Example 130, 3-morpholino-5-(4-(trifluoromethoxy)phenyl)benzo[d]isoxazole], the inhibition at 10 µM at hNav1.1 (SCN1A) and on hNaV1.2 (SCN2A) was less than 5% each time.

Consider `CC(=O)N1CCC[C@H]1COc1noc2ccc(-c3ccc(OC(F)(F)F)cc3)cc12` [Example 109, (S)-1-(2-(((5-(4-(trifluoromethoxy)phenyl)benzo[d]isoxazol-3-yl)oxy)methyl)pyrrolidin-1-yl)ethan-1-one], for which the inhibition at 10 µM worked out at 57% at hNav1.1 (SCN1A) and 39.3% at hNaV1.2 (SCN2A).

As to `OCc1cn(-c2noc3ccc(-c4ccc(OC(F)(F)F)cc4)cc23)cn1` [Example 146, (1-(5-(4-(trifluoromethoxy)phenyl)benzo[d]isoxazol-3-yl)-1H-imidazol-4-yl)methanol], the values for the inhibition at 10 µM at hNav1.1 (SCN1A) and at hNaV1.2 (SCN2A) were 87.3% and 75.8%, respectively.

With `Cc1nnc(COc2noc3ccc(-c4ccc(OC(F)(F)F)cc4)cc23)s1` [Example 101, 3-((5-methyl-1,3,4-thiadiazol-2-yl)methoxy)-5-(4-(trifluoromethoxy)phenyl)benzo[d]isoxazole], the inhibition at 10 µM on hNav1.1 (SCN1A) was less than 5%; on hNaV1.2 (SCN2A), 30.5%.

`COCCOc1noc2ccc(-c3ccc(OC(F)(F)F)cc3)cc12` [Example 60, 3-(2-methoxyethoxy)-5-(4-(trifluoromethoxy)phenyl)benzo[d]isoxazole]: the inhibition at 10 µM at hNav1.1 (SCN1A) is 27%; on hNaV1.2 (SCN2A), less than 5%.

Take `CC(C)NC(=O)COc1noc2ccc(-c3ccc(OC(F)(F)F)cc3)cc12` [Example 122, N-isopropyl-2-((5-(4-(trifluoromethoxy)phenyl)benzo[d]isoxazol-3-yl)oxy)acetamide]: the inhibition at 10 µM on hNav1.1 (SCN1A) is less than 5%; at hNaV1.2 (SCN2A) it was 29.7%.

Regarding `FC(F)(F)Oc1ccc(-c2ccc3onc(-n4ccnc4)c3c2)cc1` [Example 132, 3-(1H-imidazol-1-yl)-5-(4-(trifluoromethoxy)phenyl)benzo[d]isoxazole], the inhibition at 10 µM on hNav1.1 (SCN1A) and on hNaV1.2 (SCN2A) was less than 5% throughout.

In the case of `Cc1ncn(-c2noc3ccc(-c4ccc(OC(F)(F)F)cc4)cc23)n1` [Example 141, 3-(3-methyl-1H-1,2,4-triazol-1-yl)-5-(4-(trifluoromethoxy)phenyl)benzo[d]isoxazole], the inhibition at 10 µM at hNav1.1 (SCN1A) was 31.5%; on hNaV1.2 (SCN2A), 19.9%.

In the case of `CC(C)(C)OC(=O)COc1noc2ccc(-c3ccc(OC(F)(F)F)cc3)cc12` [Example 157, tert-butyl 2-((5-(4-(trifluoromethoxy)phenyl)benzo[d]isoxazol-3-yl)oxy)acetate], the inhibition at 10 µM on hNav1.1 (SCN1A) and at hNaV1.2 (SCN2A) was less than 5% each time.

Take `COc1cc2onc(OCc3ncccn3)c2cc1-c1ccc(Cl)c(F)c1` [Example 13, 5-(4-chloro-3-fluorophenyl)-6-methoxy-3-(pyrimidin-2-ylmethoxy)benzo[d]isoxazole]: the inhibition at 10 µM at hNav1.1 (SCN1A) worked out at 30.8%; on hNaV1.2 (SCN2A), 5.6%.

Regarding `FC(F)(F)Oc1ccc(-c2ccc3onc(OC[C@H]4COCCN4)c3c2)cc1` [Example 114, (R)-3-(morpholin-3-ylmethoxy)-5-(4-(trifluoromethoxy)phenyl)benzo[d]isoxazole], the inhibition at 10 µM at hNav1.1 (SCN1A) was 87.1%; at hNaV1.2 (SCN2A) it was 87%.

`CC(C)c1nnc(COc2noc3ccc(-c4ccc(OC(F)(F)F)cc4)cc23)o1` [Example 100, 3-((5-isopropyl-1,3,4-oxadiazol-2-yl)methoxy)-5-(4-(trifluoromethoxy)phenyl)benzo[d]isoxazole]: the inhibition at 10 µM came out at 9.9% on hNav1.1 (SCN1A) and 11% on hNaV1.2 (SCN2A).

Regarding `CN(C)c1noc2ccc(-c3ccc(OC(F)(F)F)cc3)cc12` [Example 133, N,N-dimethyl-5-(4-(trifluoromethoxy)phenyl)benzo[d]isoxazol-3-amine], the inhibition at 10 µM amounted to 22.1% on hNav1.1 (SCN1A) and 29.2% at hNaV1.2 (SCN2A).

For the compound `CC(=O)N1CC(COc2noc3ccc(-c4ccc(OC(F)(F)F)cc4)cc23)C1` [Example 110, 1-(3-(((5-(4-(trifluoromethoxy)phenyl)benzo[d]isoxazol-3-yl)oxy)methyl)azetidin-1-yl)ethan-1-one], the inhibition at 10 µM was 77.7% at hNav1.1 (SCN1A) and 67.3% at hNaV1.2 (SCN2A).

For the compound `Cc1nnc(COc2noc3c(F)cc(-c4ccc(OC(F)(F)F)cc4)cc23)o1` [Example 155, 7-fluoro-3-((5-methyl-1,3,4-oxadiazol-2-yl)methoxy)-5-(4-(trifluoromethoxy)phenyl)benzo[d]isoxazole], the results for the inhibition at 10 µM at hNav1.1 (SCN1A) and on hNaV1.2 (SCN2A) were 63.5% and 58.6%, respectively.

With `CC(=O)N1CCOC[C@@H]1COc1noc2ccc(-c3ccc(OC(F)(F)F)cc3)cc12` [Example 116, (R)-1-(3-(((5-(4-(trifluoromethoxy)phenyl)benzo[d]isoxazol-3-yl)oxy)methyl)morpholino)ethan-1-one], the inhibition at 10 µM on hNav1.1 (SCN1A) stood at 70.4%; at hNaV1.2 (SCN2A), 62.3%.

As for `FC(F)(F)Oc1cccc(-c2ccc3onc(OCc4ncccn4)c3c2)c1` [Example 10, 3-(pyrimidin-2-ylmethoxy)-5-(3-(trifluoromethoxy)phenyl)benzo[d]isoxazole], the inhibition at 10 µM at hNav1.1 (SCN1A) and on hNaV1.2 (SCN2A) was less than 5% in each case.

With `O=C(COc1noc2ccc(-c3ccc(OC(F)(F)F)cc3)cc12)N1CCCC1` [Example 121, 1-(pyrrolidin-1-yl)-2-((5-(4-(trifluoromethoxy)phenyl)benzo[d]isoxazol-3-yl)oxy)ethan-1-one], the inhibition at 10 µM at hNav1.1 (SCN1A) stood at 43.6%; at hNaV1.2 (SCN2A), 57.8%.

For `Cc1nnc(C(C)Oc2noc3ccc(-c4ccc(OC(F)(F)F)cc4)cc23)o1` (centres unmarked) [Example 153, 3-(1-(5-methyl-1,3,4-oxadiazol-2-yl)ethoxy)-5-(4-(trifluoromethoxy)phenyl)benzo[d]isoxazole], the inhibition at 10 µM on hNav1.1 (SCN1A) came out at 73.1%; on hNaV1.2 (SCN2A) it was 53.7%.

Consider `C[C@@H](N)COc1noc2ccc(-c3ccc(OC(F)(F)F)cc3)cc12` [Example 117, (R)-1-((5-(4-(trifluoromethoxy)phenyl)benzo[d]isoxazol-3-yl)oxy)propan-2-amine], for which the values for the inhibition at 10 µM on hNav1.1 (SCN1A) and at hNaV1.2 (SCN2A) were 80.9% and 88.4%, respectively.

Regarding `CC(=O)N1CCOC[C@H]1COc1noc2ccc(-c3ccc(OC(F)(F)F)cc3)cc12` [Example 115, (S)-1-(3-(((5-(4-(trifluoromethoxy)phenyl)benzo[d]isoxazol-3-yl)oxy)methyl)morpholino)ethan-1-one], the inhibition at 10 µM on hNav1.1 (SCN1A) worked out at 76.4%; on hNaV1.2 (SCN2A), 70.8%.

For the compound `N#CCOc1noc2ccc(-c3ccc(OC(F)(F)F)cc3)cc12` [Example 103, 2-((5-(4-(trifluoromethoxy)phenyl)benzo[d]isoxazol-3-yl)oxy)acetonitrile], the inhibition at 10 µM on hNav1.1 (SCN1A) was 8.5%; on hNaV1.2 (SCN2A), less than 5%.

In the case of `CC(COc1noc2ccc(-c3ccc(OC(F)(F)F)cc3)cc12)n1cccn1` (centres unmarked) [Example 68, 3-(2-(1H-pyrazol-1-yl)propoxy)-5-(4-(trifluoromethoxy)phenyl)benzo[d]isoxazole], the inhibition at 10 µM at hNav1.1 (SCN1A) and on hNaV1.2 (SCN2A) was less than 5% each time.
